Columns and labels:
Assay in all cases: relative viability (nuclei count vs DMSO), 5 days (fraction); higher = more cells survive
[1] = compound: Cn1nnc2c(C(N)=O)ncn2c1=O [Temozolomide] + N=C(N)NC(=N)NCCc1ccccc1 [Phenformin] (partner 250 µM)
Method in brief: (§1)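 After 5 days of treatment, lung cancer cells in 1536-well plates were fixed and stained in a single step (final 0.05% Triton X-100, 1% formaldehyde, 1 ug/ml Hoechst) and their nuclei counted on 4× images. Treatment had been applied by pin tool the day after seeding as one drug alone or as a fixed anchor-drug dose with five library-drug doses (not always all listed) in √10 steps. Relative viability is the nuclei count of treated wells divided by that of vehicle wells, and values are medians of duplicate plates.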

[2] = compound: Cn1nnc2c(C(N)=O)ncn2c1=O [Temozolomide] + CCNC(=O)c1noc(-c2cc(C(C)C)c(O)cc2O)c1-c1ccc(CN2CCOCC2)cc1 [Luminespib] (partner 0.01 µM)
Method in brief: as §1

[3] = compound: C[C@@H](C(=O)N[C@@H](C1CCCCC1)C(=O)N2CCC[C@H]2C(=O)N[C@@H]3[C@@H](CC4=CC=CC=C34)OCC#CC#CCO[C@@H]5CC6=CC=CC=C6[C@@H]5NC(=O)[C@@H]7CCCN7C(=O)[C@H](C8CCCCC8)NC(=O)[C@H](C)NC)NC [AZD5582] + CS(=O)(=O)CCNCc1ccc(-c2ccc3ncnc(Nc4ccc(OCc5cccc(F)c5)c(Cl)c4)c3c2)o1 [Lapatinib] (partner 2 µM)
Method in brief: as §1

[4] = compound: Cn1nnc2c(C(N)=O)ncn2c1=O [Temozolomide] + CC(=O)c1c(C)c2cnc(Nc3ccc(N4CCNCC4)cn3)nc2n(C2CCCC2)c1=O [Palbociclib] (partner 0.5 µM)
Method in brief: as §1

Row | Cell Line | relative viability ([1]; first compound 0.2 µM) | relative viability ([1]; first compound 0.6325 µM) | relative viability ([1]; first compound 2 µM) | relative viability ([1]; first compound 6.325 µM) | relative viability ([1]; first compound 20 µM) | relative viability ([2]; first compound 0.2 µM) | relative viability ([2]; first compound 0.6325 µM) | relative viability ([2]; first compound 2 µM) | relative viability ([2]; first compound 6.325 µM) | relative viability ([2]; first compound 20 µM) | relative viability ([3]; first compound 0.005 µM) | relative viability ([3]; first compound 0.01581 µM) | relative viability ([3]; first compound 0.05 µM) | relative viability ([4]; first compound 0.2 µM) | relative viability ([4]; first compound 0.6325 µM) | relative viability ([4]; first compound 2 µM) | relative viability ([4]; first compound 6.325 µM) | relative viability ([4]; first compound 20 µM) | relative viability ([3]; first compound 0.001581 µM)
1 | LCLC-97TM1 | 0.427 | 0.487 | 0.492 | 0.418 | 0.412 | 0.835 | 0.7 | 0.749 | 0.806 | 0.75 | 0.627 | 0.404 | 0.294 | 0.272 | 0.237 | 0.197 | 0.231 | 0.191 | –
2 | NCI-H1734 | 0.474 | 0.454 | 0.437 | 0.383 | 0.342 | 0.285 | 0.183 | 0.237 | 0.201 | 0.194 | 1.2 | 0.99 | 1.23 | 0.359 | 0.398 | 0.349 | 0.355 | 0.353 | 1.03
3 | NCI-H2126 | 0.503 | 0.591 | 0.574 | 0.513 | 0.519 | 0.917 | 0.927 | 1 | 0.802 | 0.888 | 0.854 | 0.719 | 0.75 | 0.347 | 0.332 | 0.349 | 0.355 | 0.345 | 0.845
4 | PC-3 [JPC-3] | 0.411 | 0.475 | 0.5 | 0.469 | 0.347 | 0.63 | 0.739 | 0.776 | 0.659 | 0.421 | 0.411 | 0.448 | 0.26 | 0.541 | 0.554 | 0.543 | 0.545 | 0.433 | 0.423
5 | NCI-H1993 | 0.563 | 0.493 | 0.469 | 0.464 | 0.613 | 0.856 | 0.783 | 0.764 | 0.75 | 0.824 | 0.82 | 0.78 | 0.843 | 0.558 | 0.772 | 0.618 | 0.755 | 0.589 | 0.792
6 | NCI-H2087 | 0.49 | 0.474 | 0.506 | 0.458 | 0.482 | 0.204 | 0.188 | 0.188 | 0.165 | 0.168 | 1.06 | 0.808 | 1.08 | 0.254 | 0.239 | 0.224 | 0.259 | 0.225 | 0.929
7 | HOP-62 | 0.939 | 0.642 | 0.818 | 0.657 | 0.717 | 0.839 | 0.88 | 0.988 | 0.93 | 0.968 | 1.06 | 1.02 | 0.958 | 0.545 | 0.488 | 0.473 | 0.375 | 0.447 | 0.748
8 | HCC-15 | 0.502 | 0.531 | 0.519 | 0.418 | 0.513 | 0.347 | 0.356 | 0.314 | 0.218 | 0.271 | 0.734 | 0.521 | 0.655 | 0.778 | 0.717 | 0.805 | 0.691 | 0.706 | 0.644
9 | NCI-H2405 | 0.492 | 0.395 | 0.42 | 0.378 | 0.431 | 0.67 | 0.77 | 0.817 | 0.513 | 0.751 | 1.21 | – | 1.01 | 0.442 | 0.576 | 0.518 | 0.5 | 0.508 | 1.11
10 | COR-L 105 | 0.452 | 0.603 | 0.594 | 0.452 | 0.305 | 0.798 | 0.781 | 1.13 | 0.561 | 1.04 | 0.424 | 0.315 | 0.421 | 0.433 | 0.446 | 0.402 | 0.383 | 0.33 | 0.351
11 | PC-14 | 0.498 | 0.686 | 0.519 | 0.31 | 0.105 | 0.143 | 0.151 | 0.167 | 0.244 | 0.144 | 0.391 | 0.33 | 0.223 | 0.706 | 0.515 | 0.472 | 0.527 | 0.415 | 0.301
12 | NCI-H1975 | 0.444 | 0.423 | 0.438 | 0.417 | 0.423 | – | 0.23 | 0.487 | 0.131 | 0.172 | 1.21 | 0.836 | 1.2 | 0.575 | 0.608 | 0.564 | 0.606 | 0.485 | 1.01
13 | NCI-H2228 | 0.411 | 0.508 | 0.307 | 0.3 | 0.351 | 0.125 | 0.162 | 0.104 | 0.149 | 0.137 | 0.739 | 1.05 | 0.34 | 0.918 | 1.03 | 0.809 | 0.798 | 0.614 | 0.614
14 | NCI-H661 | 0.252 | 0.277 | 0.247 | 0.279 | 0.27 | 0.977 | 0.931 | 0.934 | 0.879 | 0.843 | 0.561 | 0.53 | 0.716 | 0.344 | 0.393 | 0.437 | 0.411 | 0.402 | 0.38
15 | NCI-H460 | 0.52 | 0.54 | 0.492 | 0.488 | 0.478 | 0.0394 | 0.0362 | 0.0277 | 0.0344 | 0.0293 | 0.959 | 0.932 | 1.43 | 0.159 | 0.175 | 0.152 | 0.267 | 0.183 | 0.836
16 | NCI-H1792 | 0.61 | 0.352 | 0.328 | 0.155 | 0.271 | 0.412 | 0.436 | 0.44 | 0.493 | 0.508 | 0.935 | 0.798 | 1.01 | 0.569 | 0.654 | 0.638 | 0.663 | 0.619 | 0.862
17 | NCI-H2023 | 0.431 | 0.442 | 0.467 | 0.401 | 0.449 | 1.04 | 0.85 | 0.874 | 0.675 | 0.691 | 1.15 | 0.553 | 0.462 | 0.407 | 0.377 | 0.377 | 0.379 | 0.346 | 0.64

Source: the supplement of paper PMC10307832
